Test results taken from PubChem BioAssay (NCI).
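How tested: cells in 96-well plates exposed to compound for 48 hours at five concentrations. Here, GI50 denotes the concentration required for 50% inhibition of growth. TGI marks complete inhibition of growth.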

Experiments:
Assay in all cases: growth of human tumour cells (NCI), 48 h
BT-549 breast = tested on: BT-549 breast
CCRF-CEM leukemia = tested on: CCRF-CEM leukemia
HOP-62 NSCLC = tested on: HOP-62 NSCLC
HOP-92 NSCLC = tested on: HOP-92 NSCLC
MDA-MB-231 breast = tested on: MDA-MB-231 breast
OVCAR-4 ovarian = tested on: OVCAR-4 ovarian
SF-268 CNS = tested on: SF-268 CNS
SNB-19 CNS = tested on: SNB-19 CNS
T-47D breast = tested on: T-47D breast
UACC-62 melanoma = tested on: UACC-62 melanoma

SMILES | GI50 (BT-549 breast) | TGI (BT-549 breast) | GI50 (CCRF-CEM leukemia) | TGI (CCRF-CEM leukemia) | GI50 (HOP-62 NSCLC) | TGI (HOP-62 NSCLC) | GI50 (HOP-92 NSCLC) | TGI (HOP-92 NSCLC) | GI50 (MDA-MB-231 breast) | TGI (MDA-MB-231 breast) | GI50 (OVCAR-4 ovarian) | TGI (OVCAR-4 ovarian) | GI50 (SF-268 CNS) | TGI (SF-268 CNS) | GI50 (SNB-19 CNS) | TGI (SNB-19 CNS) | GI50 (T-47D breast) | TGI (T-47D breast) | TGI (UACC-62 melanoma) | GI50 (UACC-62 melanoma)
CN(C)c1ccc(/C=c2/c3ccccc3n3c2c2cc(F)ccc2[n+]3C)cc1 | 2.65 µM | 13.1 µM | 2.79 µM | 46.1 µM | 8.6 µM | 26.4 µM | 6.36 µM | 25.3 µM | 13.4 µM | 34.5 µM | 15.7 µM | 34.2 µM | 3.38 µM | 15.7 µM | 10.2 µM | 44.3 µM | 3.42 µM | 16.7 µM | 6.12 µM | 
CCS(=O)(=O)c1ccc(OC)c(Nc2ncc(-c3ccccc3Cl)o2)c1 | 11.8 µM | > 25 µM | 9.78 µM | > 25 µM | 10.1 µM | > 25 µM | 3.29 µM | 21.1 µM | 11.4 µM | > 25 µM | 13 µM | > 25 µM | 11.7 µM | > 25 µM | > 21.9 µM | > 25 µM | 8.57 µM | > 25 µM | > 25 µM | 11.3 µM
Cc1cccc(NC(=O)/C=C/c2ccc([N+](=O)[O-])cc2)c1 |  | > 51.8 µM |  | > 100 µM |  | 33.4 µM |  | 50.7 µM |  | > 52.8 µM |  | > 56.3 µM |  | > 76.8 µM |  | > 47.9 µM |  | > 55.9 µM | > 58.5 µM | 
Cc1cnc(Nc2ccc(N3CCN(C)CC3)cc2)nc1Nc1ccc(Cl)c(NS(=O)(=O)C(C)(C)C)c1 | 0.872 µM | 2.59 µM | 0.18 µM | 6.83 µM | 0.262 µM | 3.73 µM | 0.17 µM | 1.59 µM | 0.159 µM | 2.23 µM | 0.18 µM | 23.7 µM | 0.474 µM | 3.54 µM | 1.34 µM | 18.5 µM | 0.349 µM | 15.5 µM | 1.68 µM | 0.0808 µM
COc1ccc(N(/C=C/C(=O)C(F)(F)F)CC(=O)c2ccc(Cl)cc2)cc1 | 20.6 µM | 65.3 µM | 12.2 µM | 38.1 µM | 16.6 µM | 35.8 µM | 15.9 µM | 41.4 µM | 10.4 µM | 24.4 µM | 18 µM | 49.1 µM | 16.3 µM | 34.9 µM | 18.8 µM | 47.1 µM | 21.9 µM | > 100 µM | 20.7 µM | 8.34 µM
COc1cc(-n2ccnc2)cc(OC)c1OC | > 100 µM | > 100 µM | 47.6 µM | > 100 µM | 31.9 µM | > 100 µM | 72.6 µM | > 100 µM | 79 µM | > 100 µM | > 100 µM | > 100 µM | 37.9 µM | > 100 µM | > 100 µM | > 100 µM | > 100 µM | > 100 µM | > 100 µM | 36 µM
COc1ccc(/C=C\c2cc(OC)c(OC)c(OC)c2)cc1OCC(=O)Nc1ccc2nc(C)sc2c1 | 3.05 µM | 8.53 µM | 3.41 µM | > 100 µM | 3.09 µM | 8.85 µM | 2.38 µM | 7.62 µM | 5.45 µM | > 100 µM | 2.64 µM | 9.18 µM | 3.61 µM | 36.1 µM | 3.89 µM | > 100 µM | 9.41 µM | 33.8 µM | 5.16 µM | 2.19 µM
COc1ccc(C(CC(=O)c2ccccc2)C(C(=O)c2ccccc2)C(c2ccc(OC)cc2)C2C(=O)NC(=S)NC2=O)cc1 (centres undefined) | 12.8 µM | 49.8 µM | 11.8 µM | > 100 µM | 21.1 µM | > 100 µM | 3.1 µM | 43.1 µM | 2.16 µM | 10.6 µM | 30.3 µM | > 100 µM | 9.99 µM | 55.5 µM | 24.9 µM | > 100 µM | 13.2 µM | > 100 µM | 34 µM | 13.3 µM
c1ccc([As]=[As]c2ccccc2)cc1 (centres undefined) | 1.23 µM | 2.87 µM | 0.234 µM | 1.62 µM | 1.78 µM | 3.33 µM | 1.22 µM | 3.08 µM | 0.88 µM | 2.21 µM | 1.08 µM | 2.43 µM | 0.886 µM | 2.45 µM | 1.42 µM | 2.8 µM | 0.221 µM | 0.876 µM | 2.41 µM | 1.12 µM
